# pEC50, pIC50: −log10 of the molar value. Activity calls are given as the source filed them.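 How the source made its calls: active means compounds giving half or more protection of infected cells from virus-caused growth loss, again on retest; inactive means the rest.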
# Tested on: CEM cells HIV-1 protection, formazan growth assay
# Assay: NCI AIDS Antiviral Assay
# Details: for pIC50: measured here: growth of uninfected CEM cells
# Procedure, shortened: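 Screen of anti-HIV-1 activity in human CEM cells using a formazan-based growth measurement at five drug concentrations. Hits with 50% or greater protection were repeated, and confirmation required reproducible complete protection.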
Compound,pEC50,pIC50,outcome
COc1ccc(/C=C/C(=N\NC(=O)c2ccccc2)c2sc(Nc3ccc([N+](=O)[O-])cc3)nc2C)cc1OC,< 4.88,< 4.88,–
NCCSSCCCCSSCCN,< 3.70,4.91,–
CCOC(=O)NP(=O)(Nc1ccc(C)cc1)Nc1ccc(C)cc1,< 3.70,< 3.70,–
N#CC1(C#N)C(C#N)(C#N)C1(C#N)C(N)=O,< 3.70,< 3.70,–
O=c1nc2cc(-c3ccccc3)[nH]c2nn1-c1c(Cl)cc(Cl)cc1Cl,< 4.04,5.93,–
Cc1nc2cccc(F)c2c(=O)n1C1CCCCNC1=O (configuration not stated),< 3.70,< 3.70,–
O=C1C(c2[nH]c3ccc(S(=O)(=O)O)cc3c2O)=Nc2ccc(S(=O)(=O)O)cc21,< 3.70,< 3.70,–
C=Cc1nc2nnc(CCCCCCCCc3nnc4nc(C=C)[nH]n34)n2[nH]1,< 3.70,4.39,–
OCC1OC(n2cnc3c(SSc4ncnc5c4ncn5C4OC(CO)C(O)C4O)ncnc32)C(O)C1O (configuration not stated),< 3.70,< 3.70,–
Cc1cc(=O)n2c(nc3ccccc32)s1,< 3.70,< 3.70,–
CC(C)OCC(O)COc1cc(=O)oc2ccccc12 (configuration not stated),< 3.70,< 3.70,–
CCCCCCCCCCCC(=O)OCC1OC(n2cc(F)c(=O)[nH]c2=O)C(N)C(OC(=O)CCCCCCCCCCC)C1O (configuration not stated),< 5.52,< 5.52,–
OC(c1nc2ccccc2s1)(C(F)(F)F)C(F)(F)F,–,–,inactive
CCOC(=O)/C(C#N)=C/c1ccccc1Br,–,–,inactive
CCc1ccccc1NC(=O)C1=C(C)NC(C)=C(C(=O)Nc2ccccc2CC)C1c1ccc2c(c1)OCO2,< 4.86,< 4.86,–
CSc1nc(C)c(C(=O)CCN2CCOCC2)s1,< 3.70,5.00,–
CCSC1=N/C(=C/c2ccccc2O)C(Cl)=N1,4.30,< 3.70,–
O=S(=O)(c1ccccc1)c1ccccn1,4.12,3.39,–
COc1ccc(C[C@]23CCC(=O)N2CCc2cc(OC)c(O)cc23)cc1O,–,–,inactive

Compound,pEC50,pIC50,outcome
NC(CCCCCP(=O)(c1ccccc1)C1C=CC=CC1)C(=O)O (configuration not stated),< 3.70,< 3.70,–
O=C1CC23CCCCCCCCCCC2(C1)CC(=O)C3 (configuration not stated),–,–,inactive
FC(F)(Sc1ncc[nH]1)c1nc2ccccc2o1,4.36,< 3.70,–
CCOC(=O)CCC(=O)C1c2cccc(O)c2C(=O)c2c(O)cccc21,< 4.55,5.31,–
COc1ccccc1C1OCC(C)(C)N1C (configuration not stated),< 3.70,4.84,–
CCN(CC)c1ccc(N=Nc2ccc([N+](=O)[O-])cc2OC(=O)/C=C/c2ccccc2)c(OC(=O)/C=C/c2ccccc2)c1,< 5.34,6.07,–
CC(C)(C)C1CCC2(CC1)CC(=O)N(N1CCCCCC1)C(=O)C2,< 3.70,4.26,–
CCOC(=O)CN1CC(C2=C(O)CN(CC(=O)OCC)C2=O)=CC1=O,–,–,inactive
Cc1ccc(NC=O)cc1F,–,–,inactive
COC(=O)C1C(C(=O)OC)N(Cc2ccccc2)C(=O)N1Cc1ccccc1 (configuration not stated),< 3.70,3.92,–
O=[N+]([O-])c1ccc(N=NN2CCCC2)cc1,< 3.70,4.73,–
C=C1C(=O)O[C@H]2C1[C@H](OC(=O)/C(C)=C\COC(C)=O)C[C@]1(CO1)[C@@H]1[C@H](O)[C@H]3O[C@@]3(C)[C@@H]12 (some centres not stated),–,–,inactive
CN(C)c1ccc(C2CC(c3ccc4ccccc4c3O)=NN2c2ccc([N+](=O)[O-])cc2[N+](=O)[O-])cc1 (configuration not stated),< 3.82,4.48,–
O=C(c1no[n+]([O-])c1C(=O)c1csc2ccccc12)c1csc2ccccc12,< 3.70,5.98,–
CC(=O)C(/C=N\C(N)=S)=C(\C)O,< 3.70,< 3.70,–
Sc1ccc2ccccc2c1CN1CCOCC1,< 4.06,4.49,–
COc1cccc(N2C(Cl)C(=O)C2c2c[nH]c3ccccc23)c1 (configuration not stated),< 4.10,< 4.10,–
COc1cc(N)c2c(c1)SCCC(=O)N2,< 3.70,< 3.70,–
